The values below are quoted from earlier work in patent US20070071683A1, “Ultrasonic concentration of carrier particles” (The Regents of the University of California, priority 2005, published 2007).

The data set concerns tumor. To be noted: paclitaxel alone.

Take `CC(=O)O[C@H]1C(=O)[C@@]2(C)[C@H]([C@H](OC(=O)c3ccccc3)[C@]3(O)C[C@H](OC(=O)[C@H](O)[C@@H](NC(=O)c4ccccc4)c4ccccc4)C(C)=C1C3(C)C)[C@]1(OC(C)=O)CO[C@@H]1C[C@@H]2O` [paclitaxel]: the “effect on tumor volume” value is “did not affect tumor volume”.
